Data published in patent publication US11357811B2, “Methods to isolate anti-microbials from fruit or seed extracts” (priority 2012, dated 2022).

Columns and labels:
influenza A/H1N1 = format: cell-based
herpes simplex virus-1 = format: cell-based
vaccinia virus = format: cell-based
[1] = system: human parainfluenza 3 virus (HPIV3); experiment: antiviral testing against human parainfluenza 3 virus; format: cell-based; details: commercially available preparation; 100 ng/mL-100 μg/mL
poliovirus 1 = format: cell-based
[2] = at 1-100 μg/mL

Structure (SMILES)	anti-viral activity against influenza A/California/July/2009 (H1N1) (influenza A/H1N1)	anti-viral activity against herpes simplex virus-1 (herpes simplex virus-1)	anti-viral activity against vaccinia virus (vaccinia virus)	anti-viral activity against parainfluenza virus-3 [1]	anti-viral activity against poliovirus Sabin-1 (poliovirus 1)	toxicity [2]	influenza A/H1N1 inhibition by hemagglutination read-out (influenza A/H1N1)	anti-viral activity against vaccinia virus (in words) (vaccinia virus)
O=c1c(O[C@@H]2O[C@H](CO)[C@H](O)[C@H](O)[C@H]2O)c(-c2cc(O)c(O)c(O)c2)oc2cc(O)cc(O)c12 [myricetin-beta-3-galactoside]	None of the compounds showed anti-viral activity	None of the compounds showed anti-viral activity	None of the compounds showed anti-viral activity	None of the compounds showed anti-viral activity	None of the compounds showed anti-viral activity			
CC(C)[C@]12O[C@H]1[C@@H]1O[C@]13[C@]1(O[C@H]1C[C@H]1C4=C(CC[C@@]13C)C(=O)OC4)[C@@H]2O [triptolide]	None of the compounds showed anti-viral activity	None of the compounds showed anti-viral activity	None of the compounds showed anti-viral activity	None of the compounds showed anti-viral activity	None of the compounds showed anti-viral activity	toxic		
CCOC(=O)C1=C[C@@H](OC(CC)CC)[C@H](NC(C)=O)[C@@H](N)C1 [Tamiflu]							effective viral inhibition	
COc1cc(C=CC(=O)O)cc(OC)c1O (stereo in doubt) [sinapinic acid]	None of the compounds showed anti-viral activity	None of the compounds showed anti-viral activity	None of the compounds showed anti-viral activity	None of the compounds showed anti-viral activity	None of the compounds showed anti-viral activity			
O=c1c(O[C@@H]2O[C@H](CO)[C@H](O)[C@H](O)[C@H]2O)c(-c2ccc(O)c(O)c2)oc2cc(O)cc(O)c12 [quercetin-β-3-galactoside]								core) was found to be inactive.
Oc1cc(O)c2c(c1)O[C@@]1(c3ccc(O)c(O)c3)Oc3cc(O)c4c(c3[C@@H]2[C@H]1O)O[C@H](c1ccc(O)c(O)c1)[C@H](O)C4 [procyanidin A2]	None of the compounds showed anti-viral activity	None of the compounds showed anti-viral activity	None of the compounds showed anti-viral activity	None of the compounds showed anti-viral activity	None of the compounds showed anti-viral activity			
